Experiment [1] has as its target human glucagon receptor (hGCGR) (Homo sapiens, UniProt P47871). In words: cAMP production (HTRF) in CHO cells expressing hGCGR. The class given is cell-based. Details: expressed in transfected cells. The note with it: Table 6, peptides modified at position 17; cAMP in CHO hGCGR cells; geometric mean; read-out: hGluc-R EC50. Summed up:
(§1)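 Cells were resuspended in assay buffer at batch-optimized density, typically 1×10^5 cells/mL for hGLP-1R and 2×10^5 cells/mL for hGCGR. After 30 min incubation at room temperature with compound, cAMP was measured by two-step HTRF. EC50 values came from 4-parameter logistic fits of % Delta F.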
(cAMP levels reflect the balance of adenylyl cyclase and phosphodiesterase activity.)

Experiment [2] addresses human GLP-1 receptor (hGLP-1R) (Homo sapiens, UniProt P43220). The experiment can be described thus: cAMP production (HTRF) in CHO cells expressing hGLP-1R. The class given is cell-based. More on the design: expressed in transfected cells. As to conditions: for EC50: Table 6, peptides modified at position 17, cAMP in CHO hGLP-1R cells, geometric mean, read-out: hGLP-1R EC50; for % Relative Potency Ratio: Table 6, % GLP-1R activity relative to GLP-1 / % GlucR activity relative to glucagon. Summed up: as §1

Starred links: 1 amine or outer side, 2 acyl side, 3 side chain; linkers in the order of their positions; H or OH if unused. Non-standard residues stand in square brackets, D forms with d. Residues, ends and D or L forms follow the SMILES beside them. Groups on a side chain read outwards from the residue. *: point of attachment. C20 diacid = O=C(O)CCCCCCCCCCCCCCCCCCC(=O)*; C18 diacid = O=C(O)CCCCCCCCCCCCCCCCC(=O)*; γGlu = O=C(O)[C@H](CCC(=O)[*:2])N[*:1]; αMeF = C[C@](N)(Cc1ccccc1)C(=O)O; AEEA = NCCOCCOCC(=O)O; Aib = CC(C)(N)C(=O)O

Chain of human glucagon receptor (hGCGR) (P47871 26-477): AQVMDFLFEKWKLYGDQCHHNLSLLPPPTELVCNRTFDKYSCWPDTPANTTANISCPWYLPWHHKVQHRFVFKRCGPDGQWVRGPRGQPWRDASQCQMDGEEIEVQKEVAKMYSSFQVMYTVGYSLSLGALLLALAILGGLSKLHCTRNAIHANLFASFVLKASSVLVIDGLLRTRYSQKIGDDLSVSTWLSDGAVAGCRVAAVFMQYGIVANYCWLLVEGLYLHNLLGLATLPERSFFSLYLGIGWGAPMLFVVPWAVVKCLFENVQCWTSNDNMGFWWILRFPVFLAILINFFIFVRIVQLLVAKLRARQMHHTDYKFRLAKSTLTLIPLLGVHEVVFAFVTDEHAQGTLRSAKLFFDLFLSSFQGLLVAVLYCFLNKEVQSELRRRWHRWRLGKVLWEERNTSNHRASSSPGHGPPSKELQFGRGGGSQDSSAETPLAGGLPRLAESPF
Chain of human GLP-1 receptor (hGLP-1R) (P43220 24-463): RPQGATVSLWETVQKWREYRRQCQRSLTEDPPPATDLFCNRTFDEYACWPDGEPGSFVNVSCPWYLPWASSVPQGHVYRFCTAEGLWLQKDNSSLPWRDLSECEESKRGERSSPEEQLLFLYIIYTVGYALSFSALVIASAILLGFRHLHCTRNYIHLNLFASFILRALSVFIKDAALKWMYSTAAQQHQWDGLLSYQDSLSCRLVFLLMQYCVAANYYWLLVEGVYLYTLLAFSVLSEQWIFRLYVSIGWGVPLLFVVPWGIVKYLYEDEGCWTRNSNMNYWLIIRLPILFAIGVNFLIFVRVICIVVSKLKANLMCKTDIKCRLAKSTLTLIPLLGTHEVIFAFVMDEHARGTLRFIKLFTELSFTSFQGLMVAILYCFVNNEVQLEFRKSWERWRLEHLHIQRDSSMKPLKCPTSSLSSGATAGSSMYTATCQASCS

Regarding `CC[C@H](C)[C@H](NC(=O)[C@H](CO)NC(=O)[C@H](CCC(N)=O)NC(=O)[C@@H](NC(=O)[C@](C)(Cc1ccccc1)NC(=O)[C@H](CC(=O)O)NC(=O)[C@H](CCCNC(=N)N)NC(=O)[C@H](C)NC(=O)[C@H](C)NC(=O)[C@H](CCCCNC(=O)COCCOCCNC(=O)COCCOCCNC(=O)CC[C@H](NC(=O)CCCCCCCCCCCCCCCCC(=O)O)C(=O)O)NC(=O)[C@H](CO)NC(=O)[C@H](CC(=O)O)NC(=O)[C@H](CC(C)C)NC(=O)[C@](C)(Cc1ccccc1)NC(=O)[C@H](CCCCN)NC(=O)[C@H](CO)NC(=O)[C@@H](NC(=O)[C@H](CC(=O)O)NC(=O)[C@H](CO)NC(=O)[C@@H](NC(=O)[C@](C)(Cc1ccccc1)NC(=O)[C@H](CO)NC(=O)CNC(=O)[C@H](Cc1c[nH]cn1)NC(=O)C(C)(C)NC(=O)[C@@H](N)Cc1c[nH]cn1)[C@@H](C)O)C(C)C)C(C)C)C(=O)N[C@@H](C)C(=O)N[C@@H](CC(N)=O)C(=O)N[C@H](C(N)=O)[C@@H](C)O` [Peptide 18] (H-H[Aib]HGS[αMeF]TSDVSK[αMeF]LDSK([AEEA-AEEA-γGlu-C18 diacid])AARD[αMeF]VQSIANT-NH2; N-terminus assumed), the EC50 (in general, the concentration needed to bring the measured effect to its halfway point) in experiment [1] was 0.122 nM. Also, in experiment [2], the EC50 was 0.0205 nM and the “% Relative Potency Ratio” value is 11.7.

Take `CC[C@H](C)[C@H](NC(=O)C(C)(C)NC(=O)[C@H](CCC(N)=O)NC(=O)[C@@H](NC(=O)[C@](C)(Cc1ccccc1)NC(=O)[C@H](CC(=O)O)NC(=O)[C@H](CCCNC(=N)N)NC(=O)[C@H](C)NC(=O)[C@H](C)NC(=O)[C@H](CCCCNC(=O)COCCOCCNC(=O)COCCOCCNC(=O)CC[C@H](NC(=O)CC[C@H](NC(=O)CCCCCCCCCCCCCCCCC(=O)O)C(=O)O)C(=O)O)NC(=O)[C@H](CO)NC(=O)[C@H](CC(=O)O)NC(=O)[C@H](CC(C)C)NC(=O)[C@](C)(Cc1ccccc1)NC(=O)[C@H](CCCCN)NC(=O)[C@H](CO)NC(=O)[C@@H](NC(=O)[C@H](CC(=O)O)NC(=O)[C@H](CO)NC(=O)[C@@H](NC(=O)[C@](C)(Cc1ccccc1)NC(=O)[C@H](CO)NC(=O)CNC(=O)[C@H](Cc1c[nH]cn1)NC(=O)C(C)(C)NC(=O)[C@@H](N)Cc1c[nH]cn1)[C@@H](C)O)C(C)C)C(C)C)C(=O)N[C@@H](C)C(=O)N[C@@H](CC(N)=O)C(=O)N[C@H](C(N)=O)[C@@H](C)O` [Peptide 19] (H-H[Aib]HGS[αMeF]TSDVSK[αMeF]LDSK([AEEA-AEEA-γGlu-γGlu-C18 diacid])AARD[αMeF]VQ[Aib]IANT-NH2; N-terminus assumed): in experiment [1], the 50% effective concentration (EC50) worked out at 0.133 nM. For the same compound, in experiment [2], the EC50 was determined as 0.0383 nM and the “% Relative Potency Ratio” value was 6.9.

`CC[C@H](C)[C@H](NC(=O)C(C)(C)NC(=O)[C@H](CCC(=O)O)NC(=O)[C@@H](NC(=O)[C@](C)(Cc1ccccc1)NC(=O)[C@H](CC(=O)O)NC(=O)[C@H](CCCNC(=N)N)NC(=O)[C@H](C)NC(=O)[C@H](C)NC(=O)[C@H](CCCCNC(=O)COCCOCCNC(=O)COCCOCCNC(=O)CC[C@H](NC(=O)CC[C@H](NC(=O)CCCCCCCCCCCCCCCCC(=O)O)C(=O)O)C(=O)O)NC(=O)[C@H](CO)NC(=O)[C@H](CC(=O)O)NC(=O)[C@H](CC(C)C)NC(=O)[C@](C)(Cc1ccccc1)NC(=O)[C@H](CCCCN)NC(=O)[C@H](CO)NC(=O)[C@@H](NC(=O)[C@H](CC(=O)O)NC(=O)[C@H](CO)NC(=O)[C@@H](NC(=O)[C@](C)(Cc1ccccc1)NC(=O)[C@H](CO)NC(=O)CNC(=O)[C@H](Cc1c[nH]cn1)NC(=O)C(C)(C)NC(=O)[C@@H](N)Cc1c[nH]cn1)[C@@H](C)O)C(C)C)C(C)C)C(=O)N[C@@H](C)C(=O)N[C@@H](CC(N)=O)C(=O)N[C@H](C(N)=O)[C@@H](C)O` [Peptide 20] (H-H[Aib]HGS[αMeF]TSDVSK[αMeF]LDSK([AEEA-AEEA-γGlu-γGlu-C18 diacid])AARD[αMeF]VE[Aib]IANT-NH2; N-terminus assumed): the EC50 in experiment [1] is 0.136 nM. Moreover, in experiment [2], the EC50 stood at 0.152 nM and the “% Relative Potency Ratio” value is recorded as 1.8.

With `CC[C@H](C)[C@H](NC(=O)[C@H](CO)NC(=O)[C@H](CCC(=O)O)NC(=O)[C@@H](NC(=O)[C@](C)(Cc1ccccc1)NC(=O)[C@H](CC(=O)O)NC(=O)[C@H](CCC(N)=O)NC(=O)[C@H](C)NC(=O)[C@H](C)NC(=O)[C@H](CCCCNC(=O)CC[C@H](NC(=O)CCCCCCCCCCCCCCCCC(=O)O)C(=O)O)NC(=O)[C@H](CO)NC(=O)[C@H](CC(=O)O)NC(=O)[C@H](CC(C)C)NC(=O)[C@](C)(Cc1ccccc1)NC(=O)[C@H](CCCCN)NC(=O)[C@H](CO)NC(=O)[C@@H](NC(=O)[C@H](CC(=O)O)NC(=O)[C@H](CO)NC(=O)[C@@H](NC(=O)[C@](C)(Cc1ccccc1)NC(=O)[C@H](CO)NC(=O)CNC(=O)[C@H](Cc1c[nH]cn1)NC(=O)C(C)(C)NC(=O)[C@@H](N)Cc1c[nH]cn1)[C@@H](C)O)C(C)C)C(C)C)C(=O)N[C@@H](C)C(=O)N[C@@H](CC(N)=O)C(=O)N[C@H](C(N)=O)[C@@H](C)O` [Peptide 21] (H-H[Aib]HGS[αMeF]TSDVSK[αMeF]LDSK([γGlu-C18 diacid])AAQD[αMeF]VESIANT-NH2; N-terminus assumed), the EC50 in experiment [1] turned out to be 0.0688 nM. Besides, in experiment [2], the EC50 stood at 0.378 nM and the “% Relative Potency Ratio” value is listed as 0.4.

For `CC[C@H](C)[C@H](NC(=O)[C@H](CO)NC(=O)[C@H](CCC(=O)O)NC(=O)[C@@H](NC(=O)[C@](C)(Cc1ccccc1)NC(=O)[C@H](CC(=O)O)NC(=O)[C@H](CCC(N)=O)NC(=O)[C@H](C)NC(=O)[C@H](C)NC(=O)[C@H](CCCCNC(=O)COCCOCCNC(=O)COCCOCCNC(=O)CC[C@H](NC(=O)CC[C@H](NC(=O)CCCCCCCCCCCCCCCCCCC(=O)O)C(=O)O)C(=O)O)NC(=O)[C@H](CO)NC(=O)[C@H](CC(=O)O)NC(=O)[C@H](CC(C)C)NC(=O)[C@](C)(Cc1ccccc1)NC(=O)[C@H](CCCCN)NC(=O)[C@H](CO)NC(=O)[C@@H](NC(=O)[C@H](CC(=O)O)NC(=O)[C@H](CO)NC(=O)[C@@H](NC(=O)[C@](C)(Cc1ccccc1)NC(=O)[C@H](CO)NC(=O)CNC(=O)[C@H](Cc1c[nH]cn1)NC(=O)C(C)(C)NC(=O)[C@@H](N)Cc1c[nH]cn1)[C@@H](C)O)C(C)C)C(C)C)C(=O)N[C@@H](C)C(=O)N[C@@H](CC(N)=O)C(=O)N[C@H](C(N)=O)[C@@H](C)O` [Peptide 22] (H-H[Aib]HGS[αMeF]TSDVSK[αMeF]LDSK([AEEA-AEEA-γGlu-γGlu-C20 diacid])AAQD[αMeF]VESIANT-NH2; N-terminus assumed), the half-maximal effective concentration (EC50) in experiment [1] was 2.72 nM; in experiment [2], 1.23 nM. Besides, the “% Relative Potency Ratio” value in experiment [2] is given as 4.4.

For the compound `CC[C@H](C)[C@H](NC(=O)[C@H](CO)NC(=O)[C@H](CCC(=O)O)NC(=O)[C@@H](NC(=O)[C@](C)(Cc1ccccc1)NC(=O)[C@H](CC(=O)O)NC(=O)[C@H](CCC(N)=O)NC(=O)[C@H](C)NC(=O)[C@H](C)NC(=O)[C@H](CCCCNC(=O)COCCOCCNC(=O)COCCOCCNC(=O)CC[C@H](NC(=O)CCCCCCCCCCCCCCCCC(=O)O)C(=O)O)NC(=O)[C@H](CO)NC(=O)[C@H](CC(=O)O)NC(=O)[C@H](CC(C)C)NC(=O)[C@](C)(Cc1ccccc1)NC(=O)[C@H](CCCCN)NC(=O)[C@H](CO)NC(=O)[C@@H](NC(=O)[C@H](CC(=O)O)NC(=O)[C@H](CO)NC(=O)[C@@H](NC(=O)[C@](C)(Cc1ccccc1)NC(=O)[C@H](CO)NC(=O)CNC(=O)[C@H](Cc1c[nH]cn1)NC(=O)C(C)(C)NC(=O)[C@@H](N)Cc1c[nH]cn1)[C@@H](C)O)C(C)C)C(C)C)C(=O)N[C@@H](C)C(=O)N[C@@H](CC(N)=O)C(=O)N[C@H](C(N)=O)[C@@H](C)O` [Peptide 23] (H-H[Aib]HGS[αMeF]TSDVSK[αMeF]LDSK([AEEA-AEEA-γGlu-C18 diacid])AAQD[αMeF]VESIANT-NH2; N-terminus assumed), the EC50 in experiment [1] turned out to be 0.321 nM. In experiment [2], the 50% effective concentration (EC50) was 0.266 nM and the “% Relative Potency Ratio” value is given as 2.4.

Regarding `CC[C@H](C)[C@H](NC(=O)C(C)(C)NC(=O)[C@H](CCC(N)=O)NC(=O)[C@@H](NC(=O)[C@](C)(Cc1ccccc1)NC(=O)[C@H](CC(=O)O)NC(=O)[C@H](CCC(N)=O)NC(=O)[C@H](C)NC(=O)[C@H](C)NC(=O)[C@H](CCCCNC(=O)COCCOCCNC(=O)COCCOCCNC(=O)CC[C@H](NC(=O)CCCCCCCCCCCCCCCCC(=O)O)C(=O)O)NC(=O)[C@H](CO)NC(=O)[C@H](CC(=O)O)NC(=O)[C@H](CC(C)C)NC(=O)[C@](C)(Cc1ccccc1)NC(=O)[C@H](CCCCN)NC(=O)[C@H](CO)NC(=O)[C@@H](NC(=O)[C@H](CC(=O)O)NC(=O)[C@H](CO)NC(=O)[C@@H](NC(=O)[C@](C)(Cc1ccccc1)NC(=O)[C@H](CO)NC(=O)CNC(=O)[C@H](Cc1c[nH]cn1)NC(=O)C(C)(C)NC(=O)[C@@H](N)Cc1c[nH]cn1)[C@@H](C)O)C(C)C)C(C)C)C(=O)N[C@@H](C)C(=O)N[C@@H](CC(N)=O)C(=O)N[C@H](C(N)=O)[C@@H](C)O` [Peptide 24] (H-H[Aib]HGS[αMeF]TSDVSK[αMeF]LDSK([AEEA-AEEA-γGlu-C18 diacid])AAQD[αMeF]VQ[Aib]IANT-NH2; N-terminus assumed), the results for the EC50 in experiment [1] and in experiment [2] were 0.101 nM and 0.0828 nM, respectively. Further, the “% Relative Potency Ratio” value in experiment [2] was found to be 2.4.

The values are drawn from patent US20250353891A1 (MEDIMMUNE LIMITED, priority 2022, published 2025).
